The source of these data is patent publication US8557741B2, “3-aminocarbonyl-substituted benzoylcyclohexanediones and their use as herbicides” (Bayer CropScience AG, priority 2010, dated 2013).

Type in all cases: in vivo
The subject of assay [1] is Matricaria inodora. The assay can be described thus: Post-emergence herbicidal action against harmful plants. The conditions noted are these: Tripleurospermum inodorum, 504 h, dosage 80 g/ha, visual rating after about 3 weeks (Table D), read-out: Herbicidal action against MATIN. An excerpt:
(§1) The abbreviations used in the tables below denote: • ABUTH Abutilon theophrasti • AMARE Amaranthus retroflexus • ECHCG Echinochloa crus galli • PHBPU Phartoitis purpureum • STEME Stellaria media • ALOMY Alopecurus myosuroides • AVEFA Avena fatua • MATIN Matricaria inodora • POLCO Fallopia convolvulus • VERPE Veronica persica 1. Pre-emergence Herbicidal Action Against Harmful Plants Seeds of monocotyledonous and dicotyledonous weed and crop plants are placed in sandy loam in wood-fibre pots, covered with soil and cultivated in a greenhouse under good growth conditions. 2 to 3 weeks after sowing, the test plants are treated at the one-leaf stage. The compounds according to the invention, formulated in the form of wettable powders (WP) or as emulsion concentrates (EC), are then sprayed as aqueous suspension or emulsion at a water application rate of 600 to 800 I/ha (converted) with the addition of 0.2% of wetting agent onto the green parts of the plants. After the test plants have been kept in the greenhouse under optimum growth conditions for about 3 weeks, the activity of the preparations is rated visually in comparison to untreated controls (herbicidal activity in percent (%): 100% activity=the plants have died, 0% activity=control plants, —=not tested).

Assay [2] concerns Phartoitis purpureum. The assay is described as above. The conditions noted are these: 504 h; for pest or weed control at 80 g/ha: dosage 80 g/ha, visual rating after about 3 weeks (Table D), read-out: Herbicidal action against PHBPU; for pest or weed control at 20 g/ha: dosage 20 g/ha, visual rating after about 3 weeks (Table F), read-out: Herbicidal action against PHPBU.
Text: as §1

The subject of assay [3] is Veronica persica. Described as above. The conditions noted are these: 504 h, read-out: Herbicidal action against VERPE; for pest or weed control at 80 g/ha: dosage 80 g/ha, visual rating after about 3 weeks (Table D); for pest or weed control at 20 g/ha: dosage 20 g/ha, visual rating after about 3 weeks (Table F).
Text: as §1

In the next assay the test system is Fallopia convolvulus. Described as above. The conditions noted are these: 504 h, dosage 80 g/ha, visual rating after about 3 weeks (Table D), read-out: Herbicidal action against POLCO.
Text: as §1

For assay [4], the system named is Amaranthus retroflexus. The description is as above. The conditions noted are these: 504 h, dosage 80 g/ha, visual rating after about 3 weeks (Table D), read-out: Herbicidal action against AMARE.
Text: as §1

The test system of assay [5] is Echinochloa crus galli. The assay is described as above. The conditions noted are these: 504 h, read-out: Herbicidal action against ECHCG; for pest or weed control at 80 g/ha: dosage 80 g/ha, visual rating after about 3 weeks (Table D); for pest or weed control at 20 g/ha: dosage 20 g/ha, visual rating after about 3 weeks (Table F).
Text: as §1

The test system of assay [6] is Stellaria media. The description is as above. The conditions noted are these: 504 h, read-out: Herbicidal action against STEME; for pest or weed control at 80 g/ha: dosage 80 g/ha, visual rating after about 3 weeks (Table D); for pest or weed control at 20 g/ha: dosage 20 g/ha, visual rating after about 3 weeks (Table F).
Text: as §1

Assay [7] concerns Abutilon theophrasti. Described as above. The conditions noted are these: 504 h, read-out: Herbicidal action against ABUTH; for pest or weed control at 80 g/ha: dosage 80 g/ha, visual rating after about 3 weeks (Table D); for pest or weed control at 20 g/ha: dosage 20 g/ha, visual rating after about 3 weeks (Table F).
Text: as §1

Assay [8] deals with Matricaria inodora. The assay can be described thus: Pre-emergence herbicidal action against harmful plants. The conditions noted are these: Tripleurospermum inodorum, 504 h, dosage 320 g/ha, visual assessment after 3 weeks (Table A), read-out: Herbicidal action against MATIN. The text has this: (§2) The abbreviations used in the tables below denote: • ABUTH Abutilon theophrasti • AMARE Amaranthus retroflexus • ECHCG Echinochloa crus galli • PHBPU Phartoitis purpureum • STEME Stellaria media • ALOMY Alopecurus myosuroides • AVEFA Avena fatua • MATIN Matricaria inodora • POLCO Fallopia convolvulus • VERPE Veronica persica 1. Pre-emergence Herbicidal Action Against Harmful Plants Seeds of monocotyledonous and dicotyledonous weed plants and crop plants are placed in wood-fibre pots in sandy loam and covered with soil. The compounds according to the invention and the compounds known from the prior art, formulated in the form of wettable powders (WP) or as emulsion concentrates (EC), are then applied as aqueous suspension or emulsion at a water application rate of 600 to 800 I/ha (converted) with the addition of 0.2% of wetting agent to the surface of the covering soil. After the treatment, the pots are placed in a greenhouse and kept under good growth conditions for the test plants. The visual assessment of the damage to the test plants is carried out after a trial period of 3 weeks by comparison with untreated controls (herbicidal activity in percent (%): 100% activity=the plants have died, 0% activity=like control plants, —=not tested). The results of comparative table A show the compounds according to the invention have a higher herbicidal activity than the compounds of the greatest structural similarity known from the closest prior art.

Assay [9] relates to Veronica persica. Described as above. The conditions noted are these: 504 h, read-out: Herbicidal action against VERPE; for pest or weed control at 320 g/ha: dosage 320 g/ha, visual assessment after 3 weeks (Table A); for pest or weed control at 80 g/ha: dosage 80 g/ha, visual assessment after 3 weeks (Table B).
Text: as §2

Assay [10] relates to Amaranthus retroflexus. The assay is described as above. The conditions noted are these: 504 h, read-out: Herbicidal action against AMARE; for pest or weed control at 320 g/ha: dosage 320 g/ha, visual assessment after 3 weeks (Table A); for pest or weed control at 80 g/ha: dosage 80 g/ha, visual assessment after 3 weeks (Table B).
Text: as §2

The test system of assay [11] is Echinochloa crus galli. The assay is described as above. The conditions noted are these: Echinochloa, 504 h, dosage 320 g/ha, visual assessment after 3 weeks (Table A), read-out: Herbicidal action against ECHCG.
Text: as §2

The subject of a further assay is Avena fatua. Described as above. The conditions noted are these: dosage 320 g/ha, visual assessment after 3 weeks (Table A).
Text: as §2

Assay [12] has as its system Stellaria media. The description is as above. The conditions noted are these: 504 h, dosage 320 g/ha, visual assessment after 3 weeks (Table A), read-out: Herbicidal action against STEME.
Text: as §2

Assay [13] deals with Abutilon theophrasti. Described as above. The conditions noted are these: Abutilon theophrasti, 504 h, read-out: Herbicidal action against ABUTH; for pest or weed control at 320 g/ha: dosage 320 g/ha, visual assessment after 3 weeks (Table A); for pest or weed control at 80 g/ha: dosage 80 g/ha, visual assessment after 3 weeks (Table B).
Text: as §2

In the next assay the test system is VIOTR. The assay can be described thus: Post-emergence herbicidal action against harmful plants. The conditions noted are these: dosage 20 g/ha, visual rating after about 3 weeks (Table F). Here is the method: as §1, with “Seeds” for “The abbreviations used in the tables below denote: • ABUTH Abutilon theophrasti • AMARE Amaranthus retroflexus • ECHCG Echinochloa crus galli • PHBPU Phartoitis purpureum • STEME Stellaria media • ALOMY Alopecurus myosuroides • AVEFA Avena fatua • MATIN Matricaria inodora • POLCO Fallopia convolvulus • VERPE Veronica persica 1. Pre-emergence Herbicidal Action Against Harmful Plants Seeds”

The subject of a further assay is Alopecurus myosuroides. The experiment in a line: Pre-emergence herbicidal action against harmful plants. The conditions noted are these: dosage 320 g/ha, visual assessment after 3 weeks (Table A).
Text: as §2

Assay [14] deals with Phartoitis purpureum. The assay is described as above. The conditions noted are these: dosage 320 g/ha, visual assessment after 3 weeks (Table A).
Text: as §2

For the compound `CCN(C)C(=O)COc1c(S(C)(=O)=O)ccc(C(=O)C2=C(O)CCCC2=O)c1C(F)(F)F` [Compound E7], the pest or weed control at 80 g/ha was found to be 100% with Matricaria inodora [1]; 100% in the assay with Phartoitis purpureum [2]; 100% with Veronica persica [3]; 80% in the assay on Fallopia convolvulus; 100% in the assay with Amaranthus retroflexus [4]; 90% in the assay on Echinochloa crus galli [5]. Moreover, the pest or weed control at 80 g/ha in the assay on Stellaria media [6] came to 100%; with Abutilon theophrasti [7] it was 90%. Besides, the pest or weed control at 320 g/ha in the assay on Matricaria inodora [8], in the assay on Veronica persica [9], in the assay with Amaranthus retroflexus [10], in the assay with Echinochloa crus galli [11], in the assay on Stellaria media [12] and with Abutilon theophrasti [13] was 100% each time. Besides, the “Herbicidal action against AVEFA” value in the assay on Avena fatua is on record as 80%.
For the compound `CCS(=O)(=O)c1ccc(C(=O)C2=C(SCC(=O)OC)CCCC2=O)c(C(F)(F)F)c1OCC(=O)N(C)C` [Compound E9], the “Herbicidal action against VIOTR” value in the assay on VIOTR worked out at 100%. The pest or weed control at 20 g/ha was 80% with Phartoitis purpureum [2]; 100% with Veronica persica [3]; 90% in the assay on Echinochloa crus galli [5]; 90% in the assay with Stellaria media [6]; 100% with Abutilon theophrasti [7]. Besides, the pest or weed control at 80 g/ha in the assay on Veronica persica [9], with Amaranthus retroflexus [10] and with Abutilon theophrasti [13] was 90% each time.
As to `CCS(=O)(=O)c1ccc(C(=O)C2=C(O)CCCC2=O)c(Cl)c1OCC(=O)N(C)C` [Compound S5, reference compound], the pest or weed control at 80 g/ha amounted to 60% in the assay on Phartoitis purpureum [2]; 100% in the assay on Veronica persica [3]; 20% in the assay with Fallopia convolvulus; 80% in the assay on Amaranthus retroflexus [4]; 40% in the assay with Echinochloa crus galli [5]; 80% in the assay with Stellaria media [6]. For the same compound, in the assay on Abutilon theophrasti [7], the pest or weed control at 80 g/ha turned out to be 90%. Further, the pest or weed control at 320 g/ha was 90% in the assay on Matricaria inodora [8]; 100% in the assay with Veronica persica [9]; 100% in the assay on Amaranthus retroflexus [10]; 100% with Echinochloa crus galli [11]; 90% in the assay with Stellaria media [12]; 90% in the assay with Abutilon theophrasti [13]. The “Herbicidal action against ALOMY” value in the assay with Alopecurus myosuroides is 0%.
`CCN(CC)C(=O)COc1c(S(=O)(=O)CC)ccc(C(=O)C2=C(O)CCCC2=O)c1Cl` [Compound S3, reference compound]: the pest or weed control at 80 g/ha is 70% in the assay with Matricaria inodora [1]; 60% with Phartoitis purpureum [2]; 90% in the assay with Veronica persica [3]; 40% with Fallopia convolvulus; 100% with Amaranthus retroflexus [4]; 0% with Echinochloa crus galli [5]. For the same compound, the pest or weed control at 80 g/ha with Stellaria media [6] and with Abutilon theophrasti [7] was 90% in each case. For the same compound, the pest or weed control at 320 g/ha in the assay with Matricaria inodora [8] was 80%; with Veronica persica [9], 100%; in the assay with Amaranthus retroflexus [10] it was 80%; in the assay on Echinochloa crus galli [11] it was 50%; in the assay on Stellaria media [12] it was 50%; in the assay on Abutilon theophrasti [13], 70%. Moreover, in the assay on Phartoitis purpureum [14], the “Herbicidal action against PHBPU” value is 40%.
As to `CCS(=O)(=O)c1ccc(C(=O)C2=C(SCC(=O)OC)CCCC2=O)c(Cl)c1OCC(=O)N(C)C` [Compound S9, reference compound], the “Herbicidal action against VIOTR” value with VIOTR turned out to be 60%. The pest or weed control at 20 g/ha in the assay with Phartoitis purpureum [2] was found to be 60%; with Veronica persica [3] it was 80%; in the assay with Echinochloa crus galli [5], 90%; with Stellaria media [6], 70%; with Abutilon theophrasti [7] it was 80%. The pest or weed control at 80 g/ha in the assay on Veronica persica [9] amounted to 20%; in the assay with Amaranthus retroflexus [10] it was 40%; with Abutilon theophrasti [13] it was 20%.
Regarding `CCS(=O)(=O)c1ccc(C(=O)C2=C(O)CCCC2=O)c(C(F)(F)F)c1OCC(=O)N(C)C` [Compound E5], the pest or weed control at 80 g/ha in the assay with Phartoitis purpureum [2] is 90%; in the assay with Veronica persica [3], 100%; with Fallopia convolvulus, 80%; in the assay on Amaranthus retroflexus [4], 80%; with Echinochloa crus galli [5], 90%; in the assay on Stellaria media [6], 90%. In the assay with Abutilon theophrasti [7], the pest or weed control at 80 g/ha was 90%. The pest or weed control at 320 g/ha came to 100% in the assay with Matricaria inodora [8]; 100% in the assay with Veronica persica [9]; 100% in the assay with Amaranthus retroflexus [10]; 100% in the assay with Echinochloa crus galli [11]; 90% in the assay on Stellaria media [12]; 100% in the assay with Abutilon theophrasti [13]. Besides, the “Herbicidal action against ALOMY” value in the assay on Alopecurus myosuroides was determined as 100%.
